In one data set the target is Coagulation factor X (Homo sapiens, UniProt P00742). In words: Inhibition of purified human factor Xa.
Data set [1] in a line: Apparent permeability from apical to basolateral side of the human Caco2 cells. The note with it: caco-2. The format is ADME, cell-based. In general terms: Caco-2 cells form a polarised layer with tight junctions and transporters.
For the next data set, the system named is Plasma. Description: Anticoagulant activity in human plasma assessed as concentration required to double prothrombin time. In kind it is functional.
Data set [2] is described as follows: Clearance in dog at 0.5 mg/kg, iv and 0.2 mg/kg, po administered as cassette dosing. As to conditions: in vivo. The format is ADME, organism-based, Canis lupus familiaris.
Data set [3] can be described thus: Oral bioavailability in dog at 0.2 mg/kg administered as cassette dosing. The format is ADME, organism-based, Canis lupus familiaris. The note with it: in vivo.
A short description of data set [4]: Half life in dog at 0.2 mg/kg, po administered as cassette dosing. The format is ADME, organism-based, Canis lupus familiaris. On the set-up: dose 0.2 mg/kg, route oral. As to conditions: in vivo.
The nature of data set [5]: Volume of distribution at steady state in dog at 0.5 mg/kg, iv and 0.2 mg/kg, po administered as cassette dosing. In kind it is ADME, organism-based, Canis lupus familiaris. As to conditions: in vivo, read-out: Vdss.
For data set [6], the target named is Urokinase-type plasminogen activator (Homo sapiens, UniProt P00749). Description: Inhibition of human urokinase.
For the next data set, the target named is Plasma kallikrein (Homo sapiens, UniProt P03952). In words: Inhibition of human plasma kallikrein.
Plasma kallikrein, sequence (P03952 20-390 limits assumed): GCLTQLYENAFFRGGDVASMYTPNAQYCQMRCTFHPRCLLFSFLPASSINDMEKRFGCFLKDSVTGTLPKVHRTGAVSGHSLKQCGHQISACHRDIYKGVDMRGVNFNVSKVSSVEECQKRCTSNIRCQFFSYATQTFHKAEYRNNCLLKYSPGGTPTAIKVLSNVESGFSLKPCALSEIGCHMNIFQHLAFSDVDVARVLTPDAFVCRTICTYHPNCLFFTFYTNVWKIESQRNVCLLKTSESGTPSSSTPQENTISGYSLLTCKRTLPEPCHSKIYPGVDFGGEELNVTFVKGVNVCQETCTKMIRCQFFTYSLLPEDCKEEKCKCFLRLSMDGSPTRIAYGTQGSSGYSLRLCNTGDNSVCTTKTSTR
Plasma kallikrein, sequence (P03952 391-638 limits assumed): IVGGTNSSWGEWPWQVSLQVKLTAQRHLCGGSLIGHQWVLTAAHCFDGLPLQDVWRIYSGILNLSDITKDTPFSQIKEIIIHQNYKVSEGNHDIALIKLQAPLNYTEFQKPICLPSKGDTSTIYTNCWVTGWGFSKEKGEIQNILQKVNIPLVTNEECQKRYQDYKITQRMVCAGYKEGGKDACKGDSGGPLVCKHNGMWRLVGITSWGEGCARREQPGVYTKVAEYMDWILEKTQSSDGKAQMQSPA
In a further data set the target is Coagulation factor IX (Homo sapiens, UniProt P00740). In words: Inhibition of human factor 9a.
Coagulation factor IX, sequence (P00740 47-191 limits assumed): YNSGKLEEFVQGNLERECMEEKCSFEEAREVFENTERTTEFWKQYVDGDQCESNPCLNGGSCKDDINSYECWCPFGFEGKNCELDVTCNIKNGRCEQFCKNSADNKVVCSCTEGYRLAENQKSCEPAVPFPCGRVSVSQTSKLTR
Coagulation factor IX, sequence (P00740 227-461 limits assumed): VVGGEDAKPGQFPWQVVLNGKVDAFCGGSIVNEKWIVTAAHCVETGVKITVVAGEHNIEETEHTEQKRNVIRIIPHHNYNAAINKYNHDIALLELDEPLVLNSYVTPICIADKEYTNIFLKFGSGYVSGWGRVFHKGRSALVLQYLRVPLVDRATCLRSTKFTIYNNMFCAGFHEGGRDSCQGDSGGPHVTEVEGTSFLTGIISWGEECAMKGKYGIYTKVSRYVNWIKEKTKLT
Another data set has as its target Coagulation factor XI (Homo sapiens, UniProt P03951). In words: Inhibition of human factor 11a.
In data set [7] the target is Vitamin K-dependent protein C (Homo sapiens, UniProt P04070). Description: Inhibition of human activated protein C.
Vitamin K-dependent protein C, sequence (P04070 43-197 limits assumed): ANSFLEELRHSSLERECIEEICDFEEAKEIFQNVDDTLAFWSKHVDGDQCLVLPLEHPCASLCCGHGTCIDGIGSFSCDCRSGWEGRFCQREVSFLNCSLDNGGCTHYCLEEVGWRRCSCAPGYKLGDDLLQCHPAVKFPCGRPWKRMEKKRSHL
Vitamin K-dependent protein C, sequence (P04070 212-461 limits assumed): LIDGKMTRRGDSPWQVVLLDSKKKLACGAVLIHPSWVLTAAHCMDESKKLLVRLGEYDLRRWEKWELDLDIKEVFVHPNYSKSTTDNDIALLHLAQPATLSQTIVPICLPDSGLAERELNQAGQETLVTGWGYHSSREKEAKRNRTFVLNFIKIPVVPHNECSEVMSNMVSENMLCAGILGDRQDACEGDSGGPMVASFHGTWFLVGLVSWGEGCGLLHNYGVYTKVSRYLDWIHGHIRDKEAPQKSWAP
The next data set deals with Prothrombin (Homo sapiens, UniProt P00734). Description: Inhibition of human thrombin.
Data set [8] has as its target Tissue-type plasminogen activator (Homo sapiens, UniProt P00750). Description: Inhibition of human tissue plasminogen activator.
The nature of data set [9]: Inhibition of human chymotrypsin.
Data set [10] in a line: Inhibition of human factor 7a.
Another data set deals with Trypsin (Homo sapiens, UniProt P07477+P07478+P35030). In words: Inhibition of human trypsin. In kind it is protein assay.

The term Ki denotes the dissociation constant of the complex between target and ligand, obtained from inhibition or displacement. As usually defined, the Papp is a coefficient for how fast a substance crosses the barrier. A word on the bioavailability: it is dose-corrected exposure relative to a reference, in per cent. The term half-life denotes the time in which the quantity being followed falls by half. Low values mean fast loss, high ones slow loss.

Coagulation factor X, sequence (P00742 41-179 limits assumed): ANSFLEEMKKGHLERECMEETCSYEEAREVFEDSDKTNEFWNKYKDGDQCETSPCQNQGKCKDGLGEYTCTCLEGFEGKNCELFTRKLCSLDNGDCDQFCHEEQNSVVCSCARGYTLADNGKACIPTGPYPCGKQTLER
Coagulation factor X, sequence (P00742 235-488 limits assumed): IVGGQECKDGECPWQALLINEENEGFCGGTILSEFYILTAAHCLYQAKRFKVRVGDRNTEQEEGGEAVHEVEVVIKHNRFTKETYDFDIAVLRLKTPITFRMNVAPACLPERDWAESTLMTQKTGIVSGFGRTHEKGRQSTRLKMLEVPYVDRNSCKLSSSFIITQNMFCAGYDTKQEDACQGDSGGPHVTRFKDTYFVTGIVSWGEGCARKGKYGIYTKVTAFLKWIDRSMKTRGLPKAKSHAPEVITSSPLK
Tissue-type plasminogen activator, sequence (P00750 whole entry): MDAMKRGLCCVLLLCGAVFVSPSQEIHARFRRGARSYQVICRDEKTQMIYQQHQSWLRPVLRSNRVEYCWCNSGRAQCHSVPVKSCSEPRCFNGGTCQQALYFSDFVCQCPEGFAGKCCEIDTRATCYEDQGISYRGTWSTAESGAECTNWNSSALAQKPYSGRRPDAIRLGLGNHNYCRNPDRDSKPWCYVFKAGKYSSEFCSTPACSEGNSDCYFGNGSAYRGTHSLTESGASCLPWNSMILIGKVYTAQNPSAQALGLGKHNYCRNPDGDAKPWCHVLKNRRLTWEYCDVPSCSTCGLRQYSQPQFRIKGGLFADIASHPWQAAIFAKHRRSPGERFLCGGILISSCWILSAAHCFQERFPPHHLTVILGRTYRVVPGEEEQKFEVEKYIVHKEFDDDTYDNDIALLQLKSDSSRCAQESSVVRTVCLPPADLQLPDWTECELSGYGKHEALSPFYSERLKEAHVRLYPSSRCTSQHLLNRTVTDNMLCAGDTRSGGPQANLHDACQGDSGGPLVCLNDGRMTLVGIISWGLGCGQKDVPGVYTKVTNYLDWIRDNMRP
Coagulation factor XI, sequence (P03951 19-387 limits assumed): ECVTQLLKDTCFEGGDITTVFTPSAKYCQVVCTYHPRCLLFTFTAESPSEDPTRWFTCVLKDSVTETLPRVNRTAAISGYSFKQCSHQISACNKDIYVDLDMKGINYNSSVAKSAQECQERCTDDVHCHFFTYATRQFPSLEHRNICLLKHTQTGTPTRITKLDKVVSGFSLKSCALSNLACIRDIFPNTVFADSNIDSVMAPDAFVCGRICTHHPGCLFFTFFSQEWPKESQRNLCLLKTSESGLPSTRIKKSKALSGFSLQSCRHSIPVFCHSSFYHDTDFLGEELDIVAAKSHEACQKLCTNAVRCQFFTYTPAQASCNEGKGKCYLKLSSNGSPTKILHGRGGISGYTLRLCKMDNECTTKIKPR
Coagulation factor XI, sequence (P03951 388-625 limits assumed): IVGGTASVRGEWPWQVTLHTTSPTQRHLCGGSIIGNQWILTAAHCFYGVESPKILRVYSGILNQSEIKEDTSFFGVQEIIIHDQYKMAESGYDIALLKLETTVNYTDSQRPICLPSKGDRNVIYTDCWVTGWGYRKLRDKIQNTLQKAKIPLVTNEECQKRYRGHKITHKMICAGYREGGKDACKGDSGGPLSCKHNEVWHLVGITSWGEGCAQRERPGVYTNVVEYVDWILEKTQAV

`COc1ccc(-n2nc(C(N)=O)c3c2C(=O)N(c2ccc(C(C)(C)C#N)cc2)CC3)cc1`: at Coagulation factor X, affinity was put at a Ki of 1.22 nM. In data set [1], the Papp was 18 ×10⁻⁶ cm/s. The Activity in the data set with Plasma was found to be 3.4 µM.
`COc1ccc(-n2nc(S(C)(=O)=O)c3c2C(=O)N(c2ccc(C(C)(C)CN4CCCC4)cc2)CC3)cc1`: in data set [2], the clearance was 36.7 mL/min/kg. In [3], this compound displayed a bioavailability of 10%. The same compound gave a Ki on Coagulation factor X of 0.24 nM. In data set [4], this compound showed a half-life of 1.4 h. For the same compound, the Papp in data set [1] turned out to be 4.3 ×10⁻⁶ cm/s. The Activity in the data set with Plasma was 0.92 µM. In addition, in data set [5], the Vd worked out at 5.5 L/kg.
Compound `COc1ccc(-n2nc(C(N)=O)c3c2C(=O)N(c2ccc(C(C)(C)CN4CCCCC4=O)cc2)CC3)cc1` returned a Ki on Coagulation factor X of 1.5 nM. Also, the Papp in [1] is 8.3 ×10⁻⁶ cm/s. Moreover, the Activity in the data set with Plasma worked out at 7.4 µM.
For `COc1ccc(-n2nc(C(N)=O)c3c2C(=O)N(c2ccc(N4CCCCC4=O)cc2)CC3)cc1` [APIXABAN], in data set [2], the clearance was 0.333 mL/min/kg. The Vd in data set [5] was 0.2 L/kg.
In [2], `COc1ccc(-n2nc(C(N)=O)c3c2C(=O)N(c2ccc(C(C)(C)CN4CCOCC4)cc2)CC3)cc1` had a clearance of 29.3 mL/min/kg. Moreover, in data set [3], the bioavailability turned out to be 10%. The compound also returned a Ki on Coagulation factor X of 0.06 nM. The same compound showed a half-life in data set [4] of 2.8 h. Besides, the Papp in data set [1] was 17 ×10⁻⁶ cm/s. Further, the Activity with Plasma was 3.8 µM. The Vd in data set [5] was determined as 5.01 L/kg.
Regarding `COc1ccc(-n2nc(C(N)=O)c3c2C(=O)N(c2ccc(C(C)(C)CNC4CC4)cc2)CC3)cc1`, the Ki at Coagulation factor X is 0.05 nM. Besides, the apparent permeability coefficient (Papp) in data set [1] came to 2.8 ×10⁻⁶ cm/s. The Activity with Plasma amounted to 0.68 µM.
As for `COc1ccc(-n2nc(C(N)=O)c3c2C(=O)N(c2ccc(C(C)(C)N(C)C)cc2)CC3)cc1`, the Ki on Coagulation factor X was found to be 0.2 nM. Further, the Papp in data set [1] worked out at 1.1 ×10⁻⁶ cm/s. Also, the Activity in the data set with Plasma was 0.96 µM.
Taken in the same sequence, the figures for `COc1ccc(-n2nc(S(C)(=O)=O)c3c2C(=O)N(c2ccc(C(C)(C)CO)cc2)CC3)cc1` were 1.01 nM, 3.6 ×10⁻⁶ cm/s and 3.9 µM.
For the compound `COc1ccc(-n2nc(C(N)=O)c3c2C(=O)N(c2ccc(C(C)(C)CN(C)C)cc2)CC3)cc1`, in [2], the clearance was 84 mL/min/kg. In data set [3], this compound yielded a bioavailability of 41%. The same compound registered a Ki at Coagulation factor X of 0.07 nM. Moreover, the half-life in data set [4] was 1.04 h. Also, the Papp in data set [1] was determined as 5.9 ×10⁻⁶ cm/s. For the same compound, in the data set on Plasma, the Activity amounted to 0.45 µM. The Vd in data set [5] worked out at 6.57 L/kg.
Compound `COc1ccc(-n2nc(C(N)=O)c3c2C(=O)N(c2ccc(C(C)(C)O)cc2)CC3)cc1` registered a Ki on Coagulation factor X of 9.27 nM.
`COc1ccc(-n2nc(S(C)(=O)=O)c3c2C(=O)N(c2ccc(C(C)(C)CN4CCOCC4)cc2)CC3)cc1` showed a clearance in data set [2] of 21.3 mL/min/kg. For the same compound, the bioavailability in data set [3] was found to be 13%. Further, the Ki at Coagulation factor X is 0.32 nM. The compound further had a half-life in data set [4] of 4.18 h. Also, the Papp in data set [1] was 17 ×10⁻⁶ cm/s. For the same compound, the Activity in the data set on Plasma was found to be 3.7 µM. In addition, the Vd in data set [5] came to 10.1 L/kg.
`COc1ccc(-n2nc(C(N)=O)c3c2C(=O)N(c2ccc(C(C)(C)CN4CCCC4)cc2)CC3)cc1`: the Ki at Coagulation factor X stood at 0.05 nM. For the same compound, the Papp in data set [1] was found to be 5.6 ×10⁻⁶ cm/s. Also, in the data set with Plasma, the Activity is 0.73 µM.
In turn, `COc1ccc(-n2nc(C(N)=O)c3c2C(=O)N(c2ccc(C(C)(C)N4CCCC4)cc2)CC3)cc1` showed a clearance in data set [2] of 127 mL/min/kg. Moreover, on Coagulation factor X, affinity was put at a Ki of 0.07 nM. The Papp in [1] is 1.7 ×10⁻⁶ cm/s. The Activity with Plasma is 0.81 µM. The Vd in data set [5] stood at 12 L/kg.
`COc1ccc(-n2nc(C(N)=O)c3c2C(=O)N(c2ccc(C(C)(C)CO)cc2)CC3)cc1` showed a clearance in [2] of 16.3 mL/min/kg. In addition, the inhibition constant (Ki) is over 13000 nM in [6]; over 11000 nM on Plasma kallikrein; over 15000 nM at Coagulation factor IX; 0.66 nM on Coagulation factor X; over 15000 nM at Coagulation factor XI; over 37600 nM in data set [7]. In addition, the Ki is 2580 nM on Prothrombin; over 43000 nM in data set [8]; over 40000 nM in data set [9]; over 15000 nM in data set [10]; over 15000 nM at Trypsin. This compound returned a bioavailability in data set [3] of 50%. Besides, the half-life in data set [4] was 4.95 h. The Papp in data set [1] was 5.8 ×10⁻⁶ cm/s. The Activity in the data set with Plasma worked out at 3.8 µM. Besides, the Vd in data set [5] was 3.02 L/kg.
`COc1ccc(-n2nc(C(N)=O)c3c2C(=O)N(c2ccc(C(C)(C)CN)cc2)CC3)cc1` gave a clearance in data set [2] of 56 mL/min/kg. For the same compound, in [3], the bioavailability stood at 44%. This compound also yielded a Ki on Coagulation factor X of 0.15 nM. This compound had a half-life in [4] of 3.33 h. For the same compound, the Papp in data set [1] came to 0.7 ×10⁻⁶ cm/s. Moreover, in the data set on Plasma, the Activity came to 0.69 µM. In addition, in data set [5], the Vd worked out at 11.8 L/kg.
`COc1ccc(-n2nc(S(C)(=O)=O)c3c2C(=O)N(c2ccc(C(C)(C)CN(C)C)cc2)CC3)cc1`: in data set [2], the clearance is 64.3 mL/min/kg. This compound also displayed a bioavailability in data set [3] of 34%. This compound also came in with a Ki at Coagulation factor X of 0.11 nM. In addition, in data set [4], the half-life is 1.86 h. Further, the Papp in data set [1] amounted to 4.1 ×10⁻⁶ cm/s. In the data set with Plasma, the Activity amounted to 0.67 µM. Further, the Vd in [5] is 7.3 L/kg.
In the case of `COc1ccc(-n2nc(C(N)=O)c3c2C(=O)N(c2ccc(C(C)(C)S(C)(=O)=O)cc2)CC3)cc1`, the clearance in data set [2] was 5.33 mL/min/kg. The compound further returned a bioavailability in data set [3] of 79%. Further, at Coagulation factor X, the Ki worked out at 0.48 nM. In addition, the half-life in data set [4] is 1.7 h. Further, in [1], the Papp came to 1 ×10⁻⁶ cm/s. In the data set with Plasma, the Activity came out at 3.9 µM. The Vd in data set [5] worked out at 0.51 L/kg.

The values are drawn from ChEMBL document CHEMBL3351793, “Orally bioavailable factor Xa inhibitors containing alpha-substituted gem-dimethyl P4 moieties” (Bioorg Med Chem Lett, 2014).
